Source: patent US8338420B1, “Treatment of Parkinson's disease and enhancement of dopamine signal using PDE 10 inhibitor” (Mitsubishi Tanabe Pharma Corporation, priority 2002, dated 2012)

Test system: marmoset MPTP model
Assay: Marmoset MPTP model, effect on L-dopa efficacy
Format: in vivo
Details: 0.3 mg/kg or 1 mg/kg, i.v., together with L-dopa, versus vehicle with L-dopa
Protocol: Using marmoset MPTP models, effects of test compound on pharmaceutical efficacy of L-dopa administration were tested as follows.
About 16 weeks before carrying out the tests, marmosets were administered with MPTP (1-methyl-4-phenyl-1,2,3,6-tetrahydropyridine) (2.5 mg/kg, i.v.), according to the method described in the literature (Fukuzaki et al., Pharmacol. Biochem. Behav., vol. 67 No. 1, pp. 121-129, September 2000), to degenerate dopaminergic neurons in the brain, and individuals showing parkinsonian symptoms were used.
Using these marmosets (age 3-4 years, bodyweight 300-400 g), the following three kinds of tests were performed. […]
After administration of test compound (PDE10 inhibitor) (or vehicle) and L-dopa+benserazide, each individual was transferred to an activity cage equipped with four photo cell sensor units, and observation was continued for 6 hours at longest. For each individual, locomotor activity and motor disability score were evaluated in every 10-minute interval.
Motor disability was assessed according to the following 7 evaluation items, and total score of the 7 items were regarded as the motor disability score. […]

**Q.** For `COc1ccc(-c2cc(N3CCCC3)nc(/C=C/c3nc(-n4ccnc4)c4ccccc4n3)n2)cc1OC` [Compound A, 2-{(E)-2-[4-(1-imidazolyl)-quinazolin-2-yl]}ethenyl-4-(3,4-dimethoxy)phenyl-6-(pyrrolidin-1-yl)pyrimidine], which “effects of L-dopa to alleviate symptoms (locomotor activity and motor disability score)” value is on record?
**A.** enhanced and/or prolonged duration of effects of L-dopa to alleviate symptoms
